This assay addresses T1, HIF-2α (Homo sapiens, UniProt Q99814).
T1 construct: host or cells: 786-O cells stably transduced with Cignal Lenti HIF Luc Reporter (only the reporter was introduced, not HIF-2α)
As to the kind of experiment: HIF-2α luciferase reporter assay in HIF-Luc-786-O cells. The class given is cell-based. How it is done:
Generation of HIF-2α Luciferase 786-O Cell Line:
Stable cell lines were generated by transducing 786-O cells (ATCC, CRL-1932) with Cignal Lenti HIF Luc Reporter lentivirus (CLS-007 L, Qiagen) according to the manufacturer's guidelines. In brief, 0.3×10^6 786-0 cells were transduced with lentivirus at a Multiplicity of Infection (MOI) of 25 for 24 hours. After transduction, cells were replenished with fresh RPMI 1640 Medium (Cat. No. 11875085, Thermo Fisher,) supplemented with 10% FBS (Cat. No. A3160502, Gibco), 2 mM GlutaMax (Cat. No. 35050-061, Invitrogen) and 100 units of penicillin and 100 μg of streptomycin/mL (Cat. No 15070063, Thermo Fisher) for another 24 hours. Antibiotic selection was performed in cell media containing 4 μg/mL of Puromycin. After 7 days of antibiotic selection, stable pools of surviving cells were expanded and used in a luciferase reporter assay.
HIF-2α Luciferase Reporter Assay:
On day one, 20 uL of HIF-Luc-786-0 cells in OptiMem (Cat. No. 31985088, Thermo Fisher) were seeded into each well of a 384 well white opaque plate (Corning 3570) and incubated at 37° C. and 5% CO2. Twenty microliters of 2× test compounds in OptiMem were added to cells after 4 hours of incubation. Final assay conditions comprised 20,000 cells per well in 1% DMSO with test compound concentrations ranging from 50 uM to 0 uM. After 20 hours incubation at 37° C. and 5% CO2, luciferase activity was determined using ONE-Glo Luciferase Assay Reagent (E6110, Promega) following the manufacture's recommended procedure. Briefly, 40 uL of ONE-Glo luciferase reagents were added to each well and luciferase signals were measured using an Envision 2102 Multilabel Reader. Percentage maximum activity in each test well was calculated based on DMSO (maximum activity) and no cell control wells (baseline activity). The IC50 values of the test compounds were determined from compound dose response curves fitted using a standard four parameter fit equation.
For orientation: A reporter such as luciferase makes a cellular process visible.

T1 sequence (Q99814 whole entry): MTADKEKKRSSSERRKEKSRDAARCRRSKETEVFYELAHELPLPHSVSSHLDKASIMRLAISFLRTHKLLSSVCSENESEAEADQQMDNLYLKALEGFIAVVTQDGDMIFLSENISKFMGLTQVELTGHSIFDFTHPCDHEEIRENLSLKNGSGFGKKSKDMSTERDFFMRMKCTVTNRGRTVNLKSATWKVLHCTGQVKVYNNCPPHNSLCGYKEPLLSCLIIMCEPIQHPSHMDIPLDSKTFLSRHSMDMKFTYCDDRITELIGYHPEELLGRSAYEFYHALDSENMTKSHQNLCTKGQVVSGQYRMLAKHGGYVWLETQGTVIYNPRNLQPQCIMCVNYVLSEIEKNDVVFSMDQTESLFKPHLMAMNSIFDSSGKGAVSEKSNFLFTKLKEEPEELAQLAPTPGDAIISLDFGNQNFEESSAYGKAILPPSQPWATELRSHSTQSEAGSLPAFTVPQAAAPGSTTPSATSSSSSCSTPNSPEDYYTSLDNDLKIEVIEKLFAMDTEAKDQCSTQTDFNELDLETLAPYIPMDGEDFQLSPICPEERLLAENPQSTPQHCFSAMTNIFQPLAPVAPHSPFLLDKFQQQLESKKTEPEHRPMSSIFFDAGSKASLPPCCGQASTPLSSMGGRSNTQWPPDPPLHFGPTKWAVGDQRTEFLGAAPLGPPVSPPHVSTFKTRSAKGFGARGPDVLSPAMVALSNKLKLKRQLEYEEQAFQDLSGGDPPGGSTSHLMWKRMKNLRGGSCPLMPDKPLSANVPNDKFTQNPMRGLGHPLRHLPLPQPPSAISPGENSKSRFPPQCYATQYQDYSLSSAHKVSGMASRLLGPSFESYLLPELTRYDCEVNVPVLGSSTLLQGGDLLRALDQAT

As a reminder, the IC50 is the concentration needed to halve the response being measured. A higher IC50 goes with a need for much substance. For `O=[N+]([O-])c1cc(S(=O)(=O)C(F)(F)F)ccc1N1CCCc2ccc(C(F)F)cc21` [Example 67], where the note is “Table 1, 20 hours incubation”, the IC50 was > 1000 nM.

Consider `O=[N+]([O-])c1cc(S(=O)(=O)C(F)(F)F)ccc1N1CCOc2ccc(Cl)cc21` [Example 82], for which the IC50 (Table 1, 20 hours incubation) was > 1000 nM.

For the molecule `Cc1ccccc1-c1ccc([C@H]2CC[C@H](F)c3cc(F)cc(C#N)c32)c2c1[C@H](O)C(F)(F)C2` [Example 144, (5S,8R)-8-[(1S)-2,2-difluoro-1-hydroxy-7-(2-methylphenyl)-2,3-dihydro-1H-inden-4-yl]-3,5-difluoro-5,6,7,8-tetrahydronaphthalene-1-carbonitrile], for the setting “Table 3, 20 hours incubation”, the IC50 was < 100 nM.

For `Cn1cc(-c2ccc([C@H]3CC[C@H](F)c4cc(F)cc(C#N)c43)c3c2[C@H](O)C(F)(F)C3)nn1` [Example 146, (5S,8R)-8-[(1S)-2,2-difluoro-1-hydroxy-7-(1-methyl-1H-1,2,3-triazol-4-yl)-2,3-dihydro-1H-inden-4-yl]-3,5-difluoro-5,6,7,8-tetrahydronaphthalene-1-carbonitrile], the IC50 (Table 3, 20 hours incubation) was < 100 nM.

On to `Cc1ncc(-c2ccc([C@H]3CC[C@H](F)c4cc(F)cc(C#N)c43)c3c2[C@H](O)C(F)(F)C3)o1` [Example 148, (5S,8R)-8-[(1S)-2,2-difluoro-1-hydroxy-7-(2-methyl-1,3-oxazol-5-yl)-1,3-dihydroinden-4-yl]-3,5-difluoro-5,6,7,8-tetrahydronaphthalene-1-carbonitrile], for which the IC50 (Table 3, 20 hours incubation) lay in the range of 100 to 1000 nM.

In the case of `N#Cc1cc(N)ncc1-c1ccc([C@H]2CC[C@H](F)c3cc(F)cc(C#N)c32)c2c1[C@H](O)C(F)(F)C2` [Example 149, 2-amino-5-[(3S)-7-[(1R,4S)-8-cyano-4,6-difluoro-1,2,3,4-tetrahydronaphthalen-1-yl]-2,2-difluoro-3-hydroxy-1,3-dihydroinden-4-yl] pyridine-4-carbonitrile], for the setting “Table 3, 20 hours incubation”, the IC50 is < 100 nM.

With `Cn1cc(-c2ccc([C@H]3CC[C@H](F)c4cc(F)cc(C#N)c43)c3c2[C@H](O)C(F)(F)C3)cn1` [Example 150, (5S,8R)-8-[(1S)-2,2-difluoro-1-hydroxy-7-(1-methylpyrazol-4-yl)-1,3-dihydroinden-4-yl]-3,5-difluoro-5,6,7,8-tetrahydronaphthalene-1-carbonitrile], the IC50 (Table 3, 20 hours incubation) was 100 to 1000 nM.

On to `Cc1ncoc1-c1ccc([C@H]2CC[C@H](F)c3cc(F)cc(C#N)c32)c2c1[C@H](O)C(F)(F)C2` [Example 151, (5S,8R)-8-[(1S)-2,2-difluoro-1-hydroxy-7-(4-methyl-1,3-oxazol-5-yl)-1,3-dihydroinden-4-yl]-3,5-difluoro-5,6,7,8-tetrahydronaphthalene-1-carbonitrile], for which the IC50 (Table 3, 20 hours incubation) is < 100 nM.

With `Cc1c(C#N)cccc1-c1ccc([C@H]2CC[C@H](F)c3cc(F)cc(C#N)c32)c2c1[C@H](O)C(F)(F)C2` [Example 155, (5S,8R)-8-[(1S)-7-(3-cyano-2-methylphenyl)-2,2-difluoro-1-hydroxy-1,3-dihydroinden-4-yl]-3,5-difluoro-5,6,7,8-tetrahydronaphthalene-1-carbonitrile], the IC50 (Table 3, 20 hours incubation) is < 100 nM.

Consider `N#Cc1cc(F)cc2c1[C@@H](c1ccc(-c3ccncc3)c3c1CC(F)(F)[C@H]3O)CC[C@@H]2F` [Example 156, (5S,8R)-8-[(1S)-2,2-difluoro-1-hydroxy-7-pyridin-4-yl-1,3-dihydroinden-4-yl]-3,5-difluoro-5,6,7,8-tetrahydronaphthalene-1-carbonitrile], for which, where the note is “Table 3, 20 hours incubation”, the IC50 lay in the range of 100 to 1000 nM.

With `N#Cc1cc(F)cc2c1[C@@H](c1ccc(-c3cncs3)c3c1CC(F)(F)[C@H]3O)CC[C@@H]2F` [Example 158, (5S,8R)-8-[(1S)-2,2-difluoro-1-hydroxy-7-(1,3-thiazol-5-yl)-1,3-dihydroinden-4-yl]-3,5-difluoro-5,6,7,8-tetrahydronaphthalene-1-carbonitrile], the IC50 (Table 3, 20 hours incubation) is < 100 nM.

As for `N#Cc1cc(F)cc2c1[C@@H](c1ccc(-c3cccnc3)c3c1CC(F)(F)[C@H]3O)CC[C@@H]2F` [Example 160, (5S,8R)-8-[(1S)-2,2-difluoro-1-hydroxy-7-pyridin-3-yl-1,3-dihydroinden-4-yl]-3,5-difluoro-5,6,7,8-tetrahydronaphthalene-1-carbonitrile], under “Table 3, 20 hours incubation”, the IC50 was < 100 nM.

`Cc1[nH]c(=O)ccc1-c1ccc([C@H]2CC[C@H](F)c3cc(F)cc(C#N)c32)c2c1[C@H](O)C(F)(F)C2` [Example 161, (5S,8R)-8-[(1S)-2,2-difluoro-1-hydroxy-7-(2-methyl-6-oxo-1H-pyridin-3-yl)-1,3-dihydroinden-4-yl]-3,5-difluoro-5,6,7,8-tetrahydronaphthalene-1-carbonitrile] came in with an IC50 (Table 3, 20 hours incubation) of 100 to 1000 nM.

Regarding `N#Cc1cc(F)cc2c1[C@@H](c1ccc(-c3cnccc3F)c3c1CC(F)(F)[C@H]3O)CC[C@@H]2F` [Example 163, (5S,8R)-8-[(1S)-2,2-difluoro-7-(4-fluoropyridin-3-yl)-1-hydroxy-2,3-dihydro-1H-inden-4-yl]-3,5-difluoro-5,6,7,8-tetrahydronaphthalene-1-carbonitrile], the IC50 (Table 3, 20 hours incubation) was < 100 nM.

As to `N#Cc1cc(F)cc2c1[C@@H](c1ccc(-c3cccc4c3CC(=O)N4)c3c1CC(F)(F)[C@H]3O)CC[C@@H]2F` [Example 164, (5S,8R)-8-[(1S)-2,2-difluoro-1-hydroxy-7-(2-oxo-2,3-dihydro-1H-indol-4-yl)-2,3-dihydro-1H-inden-4-yl]-3,5-difluoro-5,6,7,8-tetrahydronaphthalene-1-carbonitrile], the IC50 (Table 3, 20 hours incubation) lay in the range of 100 to 1000 nM.

On to `N#Cc1cc(F)cc2c1[C@@H](c1ccc(-c3ccccc3CN)c3c1CC(F)(F)[C@H]3O)CC[C@@H]2F` [Example 165, (5S,8R)-8-[(1S)-7-[2-(aminomethyl)phenyl]-2,2-difluoro-1-hydroxy-2,3-dihydro-1H-inden-4-yl]-3,5-difluoro-5,6,7,8-tetrahydronaphthalene-1-carbonitrile], for which the IC50 (Table 3, 20 hours incubation) is 100 to 1000 nM.

With `Cc1nc(N)ncc1-c1ccc([C@H]2CC[C@H](F)c3cc(F)cc(C#N)c32)c2c1[C@H](O)C(F)(F)C2` [Example 168, (5S,8R)-8-[(1S)-7-(2-amino-4-methylpyrimidin-5-yl)-2,2-difluoro-1-hydroxy-1,3-dihydroinden-4-yl]-3,5-difluoro-5,6,7,8-tetrahydronaphthalene-1-carbonitrile], the IC50 (Table 3, 20 hours incubation) was < 100 nM.

Turning to `Cn1c(-c2ccc([C@H]3CC[C@H](F)c4cc(F)cc(C#N)c43)c3c2[C@H](O)C(F)(F)C3)cccc1=O` [Example 171, (5S,8R)-8-[(1S)-2,2-difluoro-1-hydroxy-7-(1-methyl-6-oxopyridin-2-yl)-1,3-dihydroinden-4-yl]-3,5-difluoro-5,6,7,8-tetrahydronaphthalene-1-carbonitrile], the concentration for half-maximal inhibition (IC50) (Table 3, 20 hours incubation) is < 100 nM.

`N#Cc1cc(F)cc2c1[C@@H](c1ccc(-c3ccn[nH]3)c3c1C[C@@H](F)[C@H]3O)CC[C@@H]2F` [Example 172, (5S,8R)-3,5-difluoro-8-[(1S,2R)-2-fluoro-1-hydroxy-7-(1H-pyrazol-5-yl)-2,3-dihydro-1H-inden-4-yl]-5,6,7,8-tetrahydronaphthalene-1-carbonitrile]: the IC50 (Table 3, 20 hours incubation) is > 1000 nM.

For the molecule `Cn1nncc1-c1ccc([C@H]2CC[C@H](F)c3cc(F)cc(C#N)c32)c2c1[C@H](O)[C@H](F)C2` [Example 175, (5S,8R)-3,5-difluoro-8-[(1S,2R)-2-fluoro-1-hydroxy-7-(3-methyltriazol-4-yl)-2,3-dihydro-1H-inden-4-yl]-5,6,7,8-tetrahydronaphthalene-1-carbonitrile], where the note is “Table 3, 20 hours incubation”, the IC50 was < 100 nM.

As to `Cc1nccnc1-c1ccc([C@H]2CC[C@H](F)c3cc(F)cc(C#N)c32)c2c1[C@H](O)C(F)(F)C2` [Example 176, (5S,8R)-8-[(1S)-2,2-difluoro-1-hydroxy-7-(3-methylpyrazin-2-yl)-1,3-dihydroinden-4-yl]-3,5-difluoro-5,6,7,8-tetrahydronaphthalene-1-carbonitrile], under “Table 3, 20 hours incubation”, the IC50 was < 100 nM.

Consider `N#Cc1cc(F)cc2c1[C@@H](c1ccc(-c3cncnc3N)c3c1CC(F)(F)[C@H]3O)CC[C@@H]2F` [Example 177, (5S,8R)-8-[(1S)-7-(4-aminopyrimidin-5-yl)-2,2-difluoro-1-hydroxy-1,3-dihydroinden-4-yl]-3,5-difluoro-5,6,7,8-tetrahydronaphthalene-1-carbonitrile], for which the IC50 (Table 3, 20 hours incubation) is < 100 nM.

The molecule `N#Cc1cc(F)cc2c1[C@@H](c1ccc(-c3cnncc3N)c3c1CC(F)(F)[C@H]3O)CC[C@@H]2F` [Example 178, (5S,8R)-8-[(1S)-7-(5-aminopyridazin-4-yl)-2,2-difluoro-1-hydroxy-1,3-dihydroinden-4-yl]-3,5-difluoro-5,6,7,8-tetrahydronaphthalene-1-carbonitrile] yielded an IC50 (Table 3, 20 hours incubation) of 100 to 1000 nM.

The values above are taken from patent publication US11787762B2, “Tetralin and tetrahydroquinoline compounds as inhibitors of HIF-2alpha” (ARCUS BIOSCIENCES, INC., priority 2020, dated 2023).
